According to US7786152B2, “Compound” (priority 2002, dated 2010):

Molecular target: T1, Human 11βHSD1 (Homo sapiens, UniProt P28845)
T1 construct: the enzyme source, native hepatic enzyme compared to recombinant enzyme; tissue XenoTech H0610/Lot 0210078; host or cells: human hepatic microsomes
Experiment: 11β HSD1 cortisol radioimmunoassay (RIA) with human hepatic microsomes
Type: biochemical
Conditions: read-out: % inhibition of Human 11βHSD1 @ 10 μM
Description: Biological Assay Development Using Human 11β-Hydroxysteroid Dehydrogenase Type 1. Standard Operating Procedure for the 11β-Hydroxysteroid Dehydrogenase Type 1 Cortisol Radioimmunoassay. 11β HSD1 Cortisol RIA
Enzyme assay buffer: 30 mM Tris-HCL, pH 7.2 containing 1 mM EDTA
Antibody binding buffer: 50 mM Tris-HCL, pH 8, containing 0.1 M NaCl and 0.1% gelatin
Dilute into assay buffer 1 in 25. Also dilute neat DMSO 1 in 25 into assay buffer for controls.
Dilute this 1 in 50 into assay buffer.
Prepare NADPH as a 1.8 mg/ml solution in assay buffer.
Mix these 3 solutions 1:1:1 to make a solution of sufficient volume for 25 μl additions to each sample. Add 0.5 μCi tritiated cortisone per 25 μl and mix the solution well.
Microsome preparation: Dilute stock 20 mg/ml solution 1 in 100 with assay buffer.
Dextran coated charcoal preparation: Make a 20 mg/ml solution in antibody binding buffer and chill on ice.
Enzyme assay: To a u-bottom polypropylene 96 well plate add:
25 μl compound dilution or diluted DMSO to controls, NSB's and blanks
10 μl 1 mM GA in DMSO (enzyme stop solution) to blanks
25 μl substrate mixture to all samples
50 μl diluted microsomes to all samples
Incubate plate for 30 min at 37° C. shaking
Add 10 μl enzyme stop solution to all wells except the blanks
Add 100 μl antibody solution to all wells except the NSB's, add antibody binding buffer to these wells
Incubate at 37° C. for 1 h
Chill plate on ice for 15 min
Add 50 μl/well charcoal solution and mix with an 8-channel pipette (4-5 aspirations)
Centrifuge at 4° C., 2000×g for 15 min
Transfer 100 μl supernatant into an Optiplate, also add 25 μl substrate mixture to 2 empty wells to indicate counting efficiency
Add 200 μl Microscint-40 to all wells and count on a Topcount
The 11β HSD1 enzyme assay was carried out following the standard operating procedure described above in u-bottom polypropylene 96 well plates or 1.5 ml Eppendorf tubes as indicated for each experiment. Subsequent to stopping the enzyme reaction, 100 μl antibody prepared in buffer 3 unless otherwise indicated was added to test samples and 100 μl buffer 3 was added to the NSB samples. The samples were incubated for 1 hour at 37° C. and the chilled on ice for 15 mins. Dextran coated charcoal (50 μl/sample) prepared to the indicated concentration in buffer 3 was added and the samples were mixed (vortex for tubes and aspiration 5 times with an 8-channel pipette for 96 well plates) and chilled for a further 10 min. The samples were centrifuged at 2000×g for 15 min at 4° C. to pellet the charcoal. Aliquots of the supernatant (100 μl) were transferred to an Optiplate and counted on the Topcount in 150-200 μl Microscint 40. In some experiments, aliquots of supernatant were transferred to scintillation vials and counted on the Tricarb LSC in 5 ml Ultima Gold scintillant.
Substrate saturation was examined. The enzyme assay was carried out exactly described in the methods section, in Buffer 3 with 10 μg/well microsomal protein and with [cold cortisone] as indicated. [3H]-cortisone was 0.5 μCi/sample throughout. The reaction was stopped after 30 min by the addition of 10 μl stop solution. The RIA was carried out exactly as indicated in the methods section.
It is reported that DMSO can both increase and reduce microsomal enzyme activity, depending on the concentration, presumably due to effects on the microsomal membranes.

T1 sequence (P28845 whole entry): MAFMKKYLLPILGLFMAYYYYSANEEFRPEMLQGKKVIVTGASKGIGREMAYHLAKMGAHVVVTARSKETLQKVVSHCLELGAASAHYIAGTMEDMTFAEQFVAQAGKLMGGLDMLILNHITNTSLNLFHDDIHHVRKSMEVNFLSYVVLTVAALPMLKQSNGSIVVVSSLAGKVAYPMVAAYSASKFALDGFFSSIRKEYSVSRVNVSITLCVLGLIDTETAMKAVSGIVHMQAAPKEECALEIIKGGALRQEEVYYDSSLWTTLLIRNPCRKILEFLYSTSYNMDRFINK

Compound	inhibition at 10 µM [%]
CCCc1ccc(S(=O)(=O)Nc2ccc3[nH]c(C)c(C)c3c2)cc1 [compound 1020]	64
Cc1nc2cc(C)c(NS(=O)(=O)c3cc(Cl)ccc3Cl)cc2s1 [compound 999]	55
Cc1nc2cc(C)c(N(S(=O)(=O)c3cccc(Cl)c3C)S(=O)(=O)c3cccc(Cl)c3C)cc2s1 [compound 997]	51
COc1ccc2nc(C)sc2c1NS(=O)(=O)c1cccc(Cl)c1C [compound 989]	45
CCN1CCc2cc(NS(=O)(=O)c3cccc(Cl)c3C)ccc21 [compound 987]	62
Cc1nc2c(Cl)c(NS(=O)(=O)c3cccc(Cl)c3C)ccc2s1 [compound 992]	61
Cc1c(Cl)cccc1S(=O)(=O)N(C)c1ccc2c(c1)sc(=O)n2C [compound 831]	28
Cc1[nH]c2ccc(NS(=O)(=O)c3cccc(Cl)c3C)cc2c1C [compound 1018]	66
Cc1c(Cl)cccc1S(=O)(=O)Nc1ccc2cc[nH]c2c1 [compound 982]	53
Cc1nc2c(NS(=O)(=O)c3cccc(Cl)c3C)c(C)ccc2s1 [compound 996]	63
Cc1nc2cc(CNS(=O)(=O)c3cccc(Cl)c3C)ccc2s1 [compound 1029]	78
CCCc1ccc(S(=O)(=O)N(c2ccc3sc(C)nc3c2Cl)S(=O)(=O)c2ccc(CCC)cc2)cc1 [compound 995]	68
CCCc1ccc(S(=O)(=O)Nc2ccc3sc(C)nc3c2Cl)cc1 [compound 994]	83
Cc1c(Cl)cccc1S(=O)(=O)Nc1ccc2c(c1)nc(C)n2C [compound 976]	110
CCOC(=O)Cn1c(C)nc2cc(NS(=O)(=O)c3cccc(Cl)c3C)ccc21 [compound 978]	60
CC(=O)N1CCc2cc(NS(=O)(=O)c3cccc(Cl)c3C)ccc21 [compound 984]	73
CCOC(=O)c1cc2cc(NS(=O)(=O)c3cccc(Cl)c3C)ccc2[nH]1 [compound 986]	65
Cc1nc2cc(NS(=O)(=O)c3cccc(Cl)c3C)ccc2[nH]1 [compound 985]	61
Cc1nc2cc(CN(Cc3ccc4sc(C)nc4c3)S(=O)(=O)c3cccc(Cl)c3C)ccc2s1 [compound 1030]	61
Cc1nc2cc(C)c(NS(=O)(=O)c3cccc(Cl)c3C)cc2s1 [compound 998]	58
Cc1nc2c(Cl)c(N(S(=O)(=O)c3cccc(Cl)c3C)S(=O)(=O)c3cccc(C)c3Cl)ccc2s1 [compound 991]	51
Cc1[nH]c2ccc(NS(=O)(=O)c3cc(Cl)ccc3Cl)cc2c1C [compound 1019]	61
Cc1nc2ccc(C)c(NS(=O)(=O)c3cccc(Cl)c3C)c2s1 [compound 1021]	54
Cc1c(Cl)cccc1S(=O)(=O)Nc1ccc2[nH]ccc2c1 [compound 981]	40
Cc1nc2c(Cl)c(NS(=O)(=O)c3cccc(Cl)c3C)c(Cl)cc2s1 [compound 1017]	60
CCOC(=O)Cn1c(C)nc2ccc(NS(=O)(=O)c3cccc(Cl)c3C)cc21 [compound 977]	61
Cc1c(Cl)cccc1S(=O)(=O)Nc1ccc2nc(C)n(C)c2c1 [compound 975]	45
